Assay in all cases: relative viability (nuclei count vs DMSO), 5 days (fraction); higher = more cells survive
Compound in assay [1]: C1CC(C2=C(C1)C3=C(N2)C=CC(=C3)Cl)C(=O)N [Selisistat] + O=C(c1cc(Cc2n[nH]c(=O)c3ccccc23)ccc1F)N1CCN(C(=O)C2CC2)CC1 [Olaparib] (partner 8 µM)
The procedure, abridged: (§1)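 After 5 days of treatment, lung cancer cells in 1536-well plates were fixed and stained in a single step (final 0.05% Triton X-100, 1% formaldehyde, 1 ug/ml Hoechst) and their nuclei counted on 4× images. Treatment had been applied by pin tool the day after seeding as one drug alone or as a fixed anchor-drug dose with five library-drug doses (not always all listed) in √10 steps. Relative viability is the nuclei count of treated wells divided by that of vehicle wells, and values are medians of duplicate plates.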

Compound in assay [2]: c1ccc2c(CCNc3ccc(Nc4ccncc4)cc3)c[nH]c2c1 [Serdemetan] + CC(=O)Nc1cccc(-n2c(=O)n(C3CC3)c(=O)c3c(Nc4ccc(I)cc4F)n(C)c(=O)c(C)c32)c1 [Trametinib] (partner 0.02 µM)
The gist of the method: as §1

Compound in assay [3]: c1ccc2c(CCNc3ccc(Nc4ccncc4)cc3)c[nH]c2c1 [Serdemetan] + COc1cccc2cc(-c3nc([C@H]4CC[C@H](C(=O)O)CC4)n4ncnc(N)c34)[nH]c12 [OSI-027] (partner 0.5 µM)
The gist of the method: as §1

Compound in assay [4]: c1ccc2c(CCNc3ccc(Nc4ccncc4)cc3)c[nH]c2c1 [Serdemetan] + C[C@@H](Oc1cc(-c2cnn(C3CCNCC3)c2)cnc1N)c1c(Cl)ccc(F)c1Cl [Crizotinib] (partner 1 µM)
The gist of the method:
as §1

In the case of NCI-H1755, the relative viability was 0.955 in assay [1] (first compound 0.4 µM); 0.835 in assay [1] (first compound 1.265 µM); 0.941 in assay [1] (first compound 4 µM); 0.875 in assay [1] (first compound 12.65 µM); 0.952 in assay [1] (first compound 40 µM); 0.762 in assay [2] (first compound 0.04 µM). Moreover, the relative viability amounted to 0.703 in assay [2] (first compound 0.1265 µM); 0.744 in assay [2] (first compound 0.4 µM); 0.572 in assay [2] (first compound 1.265 µM); 0.474 in assay [2] (first compound 4 µM); 0.725 in assay [3] (first compound 0.04 µM); 0.687 in assay [3] (first compound 0.1265 µM). Moreover, the relative viability is 0.686 in assay [3] (first compound 0.4 µM); 0.563 in assay [3] (first compound 1.265 µM); 0.568 in assay [3] (first compound 4 µM); 0.83 in assay [4] (first compound 0.04 µM); 0.768 in assay [4] (first compound 0.1265 µM); 0.767 in assay [4] (first compound 0.4 µM). Moreover, the relative viability turned out to be 0.323 in assay [4] (first compound 1.265 µM) and 0.428 in assay [4] (first compound 4 µM).

With NCI-H661, the relative viability in assay [1] (first compound 0.4 µM) is 0.739; in assay [1] (first compound 1.265 µM) it was 0.713; in assay [1] (first compound 4 µM), 0.781; in assay [1] (first compound 12.65 µM) it was 0.667; in assay [1] (first compound 40 µM) it was 0.577; in assay [2] (first compound 0.04 µM), 0.551. Also, the relative viability in assay [2] (first compound 0.1265 µM) was determined as 0.603; in assay [2] (first compound 0.4 µM), 0.621; in assay [2] (first compound 1.265 µM) it was 0.512; in assay [2] (first compound 4 µM), 0.517; in assay [3] (first compound 0.04 µM), 0.689; in assay [3] (first compound 0.1265 µM), 0.706. For the same cell line, the relative viability in assay [3] (first compound 0.4 µM) is 0.736; in assay [3] (first compound 1.265 µM) it was 0.672; in assay [3] (first compound 4 µM), 0.69; in assay [4] (first compound 0.04 µM) it was 1.01; in assay [4] (first compound 0.4 µM), 0.977; in assay [4] (first compound 4 µM), 0.987.

Take HARA: the relative viability was 0.695 in assay [1] (first compound 0.4 µM); 0.651 in assay [1] (first compound 1.265 µM); 0.785 in assay [1] (first compound 12.65 µM); 0.85 in assay [1] (first compound 40 µM); 0.529 in assay [2] (first compound 0.04 µM); 0.658 in assay [2] (first compound 0.1265 µM). Further, the relative viability in assay [2] (first compound 0.4 µM) was 0.649; in assay [2] (first compound 1.265 µM), 0.42; in assay [2] (first compound 4 µM), 0.641; in assay [3] (first compound 0.04 µM), 0.528; in assay [3] (first compound 0.1265 µM), 0.703; in assay [3] (first compound 0.4 µM) it was 0.395. In addition, the relative viability in assay [3] (first compound 1.265 µM) came out at 0.274; in assay [3] (first compound 4 µM) it was 0.304; in assay [4] (first compound 0.04 µM) it was 0.856; in assay [4] (first compound 0.1265 µM) it was 0.971; in assay [4] (first compound 0.4 µM), 0.966; in assay [4] (first compound 4 µM), 0.601.

As to NCI-H596, the relative viability amounted to 0.802 in assay [1] (first compound 0.4 µM); 0.715 in assay [1] (first compound 1.265 µM); 0.643 in assay [1] (first compound 4 µM); 0.619 in assay [1] (first compound 12.65 µM); 0.609 in assay [1] (first compound 40 µM); 0.894 in assay [2] (first compound 0.04 µM). Further, the relative viability is 0.883 in assay [2] (first compound 0.1265 µM); 0.618 in assay [2] (first compound 0.4 µM); 0.526 in assay [2] (first compound 1.265 µM); 0.517 in assay [2] (first compound 4 µM); 0.888 in assay [3] (first compound 0.04 µM); 0.699 in assay [3] (first compound 0.1265 µM). In addition, the relative viability turned out to be 0.614 in assay [3] (first compound 0.4 µM); 0.494 in assay [3] (first compound 1.265 µM); 0.519 in assay [3] (first compound 4 µM); 1 in assay [4] (first compound 0.04 µM); 0.862 in assay [4] (first compound 0.1265 µM); 0.914 in assay [4] (first compound 0.4 µM). Also, the relative viability in assay [4] (first compound 1.265 µM) stood at 0.569; in assay [4] (first compound 4 µM), 0.51.

In the case of NCI-H23, the relative viability was determined as 0.234 in assay [1] (first compound 0.4 µM); 0.353 in assay [1] (first compound 1.265 µM); 0.305 in assay [1] (first compound 12.65 µM); 0.31 in assay [1] (first compound 40 µM); 0.354 in assay [2] (first compound 0.04 µM); 0.399 in assay [2] (first compound 0.1265 µM). Besides, the relative viability is 0.426 in assay [2] (first compound 0.4 µM); 0.363 in assay [2] (first compound 4 µM); 0.636 in assay [3] (first compound 0.04 µM); 0.702 in assay [3] (first compound 0.1265 µM); 0.607 in assay [3] (first compound 0.4 µM); 0.43 in assay [3] (first compound 1.265 µM). Further, the relative viability in assay [3] (first compound 4 µM) came out at 0.531; in assay [4] (first compound 0.04 µM), 0.519; in assay [4] (first compound 0.1265 µM), 0.421; in assay [4] (first compound 0.4 µM) it was 0.549; in assay [4] (first compound 1.265 µM) it was 0.513; in assay [4] (first compound 4 µM), 0.321.

Consider LCLC-97TM1, for which the relative viability was 0.488 in assay [1] (first compound 0.4 µM); 0.304 in assay [1] (first compound 1.265 µM); 0.285 in assay [1] (first compound 12.65 µM); 0.366 in assay [1] (first compound 40 µM); 0.204 in assay [2] (first compound 0.04 µM); 0.193 in assay [2] (first compound 0.1265 µM). In addition, the relative viability turned out to be 0.177 in assay [2] (first compound 0.4 µM); 0.167 in assay [2] (first compound 1.265 µM); 0.171 in assay [2] (first compound 4 µM); 0.371 in assay [3] (first compound 0.04 µM); 0.553 in assay [3] (first compound 0.1265 µM); 0.412 in assay [3] (first compound 0.4 µM). Also, the relative viability in assay [3] (first compound 4 µM) worked out at 0.528; in assay [4] (first compound 0.04 µM), 0.361; in assay [4] (first compound 0.1265 µM), 0.314; in assay [4] (first compound 0.4 µM), 0.351; in assay [4] (first compound 1.265 µM), 0.233; in assay [4] (first compound 4 µM), 0.189.

For the cell line EPLC-272H, the relative viability in assay [1] (first compound 0.4 µM) came out at 0.888; in assay [1] (first compound 1.265 µM), 0.787; in assay [1] (first compound 4 µM) it was 0.626; in assay [1] (first compound 12.65 µM) it was 0.749; in assay [1] (first compound 40 µM), 0.657; in assay [2] (first compound 0.04 µM), 0.32. Moreover, the relative viability stood at 0.281 in assay [2] (first compound 0.1265 µM); 0.28 in assay [2] (first compound 0.4 µM); 0.292 in assay [2] (first compound 1.265 µM); 0.25 in assay [2] (first compound 4 µM); 0.285 in assay [3] (first compound 0.04 µM); 0.355 in assay [3] (first compound 0.1265 µM). Besides, the relative viability in assay [3] (first compound 0.4 µM) is 0.296; in assay [3] (first compound 1.265 µM), 0.248; in assay [3] (first compound 4 µM), 0.272; in assay [4] (first compound 0.04 µM) it was 0.939; in assay [4] (first compound 0.1265 µM), 0.692; in assay [4] (first compound 0.4 µM), 0.868. For the same cell line, the relative viability was 0.612 in assay [4] (first compound 1.265 µM) and 0.837 in assay [4] (first compound 4 µM).

The record behind these values is the supplement of paper PMC10307832.
